Data: US20220135591A1, “HETEROCYCLIC COMPOUNDS AS INHIBITORS OF MONOACYLGLYCEROL LIPASE (MAGL)” (Hoffmann-La Roche Inc., priority 2019, published 2022)

Target: T1, MAGL (recombinant wild-type) (Homo sapiens, UniProt Q99685)
T1 sequence (Q99685 1-303): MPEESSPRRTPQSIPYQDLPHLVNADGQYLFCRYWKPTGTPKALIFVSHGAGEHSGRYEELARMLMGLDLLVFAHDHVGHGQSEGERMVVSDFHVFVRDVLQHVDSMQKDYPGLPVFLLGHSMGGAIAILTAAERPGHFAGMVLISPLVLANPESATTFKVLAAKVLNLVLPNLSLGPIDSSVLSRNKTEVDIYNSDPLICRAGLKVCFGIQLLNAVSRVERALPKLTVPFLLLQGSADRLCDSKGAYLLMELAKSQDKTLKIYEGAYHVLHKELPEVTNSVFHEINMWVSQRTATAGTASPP
Experiment: 4-NPA assay: MAGL inhibitory activity by hydrolysis of 4-nitrophenylacetate, absorbance at 405 nm
Assay type: biochemical
Conditions: 4-NPA assay (values without footnote [b])
Procedure: Compounds were profiled for MAGL inhibitory activity by measuring the enzymatic activity of MAGL by following the hydrolysis of 4-nitrophenylacetate resulting in 4-nitrophenol, which absorbs at 405-412 nm (G. G. Muccioli, G. Labar, D. M. Lambert, Chem. Bio. Chem. 2008, 9, 2704-2710). This assay is hereinafter abbreviated “4-NPA assay”.
The assay was carried out in 384 well assay plates (black with clear bottom, non-binding surface treated, Corning Ref. 3655) in a total volume of 40 μL. Compound dilutions were made in 100% DMSO (VWR Chemicals 23500.297) in a polypropylene plate in 3-fold dilution steps to give a final concentration range in the assay from 25 μM to 1.7 nM. 1 μL compound dilutions (100% DMSO) were added to 19 μL MAGL (recombinant wild-type) in assay buffer (50 mM TRIS (GIBCO, 15567-027), 1 mM EDTA (Fluka, 03690-100 mL)). The plate was shaked for 1 min at 2000 rpm (Variomag Teleshake) and then incubated for 15 min at RT. To start the reaction, 20 μL 4-Nitrophenlyacetate (Sigma N-8130) in assay buffer with 6% EtOH was added. The final concentrations in the assay were 1 nM MAGL and 300 μM 4-Nitrophenylacetate. After shaking (1 min, 2000 rpm) and 5 min incubation at RT, the absorbance at 405 nm was measured for a first time (Molecular Devices, SpectraMax Paradigm). A second measurement was then done after incubation for 80 min at RT. From the two measurements, the slope was calculated by subtracting the first from the second measurement.

| Compound | IC50 [nM] |
| --- | --- |
| CC(C)(CF)c1nnc(-c2ccc(C(=O)N3CCN(c4nc5nc(Cl)ccc5o4)CC3)cc2)o1 [Example 34, [4-(5-chlorooxazolo[4,5-b]pyridin-2-yl)piperazin-1-yl]-[4-[5-(2-fluoro-1,1-dimethyl-ethyl)-1,3,4-oxadiazol-2-yl]phenyl]methanone; 2,2,2-trifluoroacetic acid] | 176 |
| Cc1ccc2oc(N3CCN(C(=O)c4ccc(-c5noc(C6(F)CC6)n5)cc4)CC3)nc2n1 [Example 35, [4-[5-(1-fluorocyclopropyl)-1,2,4-oxadiazol-3-yl]phenyl]-[4-(5-methyloxazolo[4,5-b]pyridin-2-yl)piperazin-1-yl]methanone] | 369 |
| Cc1ccc2oc(N3CCN(C(=O)c4ccc(-c5noc(C6(CF)CC6)n5)cc4)CC3)nc2n1 [Example 36, [4-[5-[1-(fluoromethyl)cyclopropyl]-1,2,4-oxadiazol-3-yl]phenyl]-[4-(5-methyloxazolo[4,5-b]pyridin-2-yl)piperazin-1-yl]methanone] | 257 |
| O=C(c1ccc(-c2noc(C3(CF)CC3)n2)cc1)N1CCN(c2nc3nc(Cl)ccc3o2)CC1 [Example 37, [4-(5-chlorooxazolo[4,5-b]pyridin-2-yl)piperazin-1-yl]-[4-[5-[1-(fluoromethyl)cyclopropyl]-1,2,4-oxadiazol-3-yl]phenyl]methanone] | 101 |
| CC(C)(C)c1noc(-c2ccc(C(=O)N3CCN(c4nc5nc(Cl)ccc5o4)CC3)cc2)n1 [Example 39, [4-(3-tert-butyl-1,2,4-oxadiazol-5-yl)phenyl]-[4-(5-chlorooxazolo[4,5-b]pyridin-2-yl)piperazin-1-yl]methanone] | 19 |
| CC1(Cc2nc(-c3ccc(C(=O)N4CCN(c5nc6nc(Cl)ccc6o5)CC4)cc3)no2)CC1 [Example 40, [4-(5-chlorooxazolo[4,5-b]pyridin-2-yl)piperazin-1-yl]-[4-[5-[(1-methylcyclopropyl)methyl]-1,2,4-oxadiazol-3-yl]phenyl]methanone] | 6 |
| CC(C)(C)Cn1cc(-c2ccc(C(=O)N3CCN(c4nc5nc(Cl)ccc5o4)CC3)cc2)nn1 [Example 43, [4-(5-chlorooxazolo[4,5-b]pyridin-2-yl)piperazin-1-yl]-[4-[1-(2,2-dimethylpropyl)triazol-4-yl]phenyl]methanone] | 6 |
| CC(C)(C)Cn1ncc(-c2ccc(C(=O)N3CCN(c4nc5nc(Cl)ccc5o4)CC3)cc2)n1 [Example 44, [4-(5-chlorooxazolo[4,5-b]pyridin-2-yl)piperazin-1-yl]-[4-[2-(2,2-dimethylpropyl)triazol-4-yl]phenyl]methanone] | 3 |
| CC1CN(c2nc3nc(Cl)ccc3o2)CCN1C(=O)c1ccc(-c2noc(C(C)(C)C)n2)cc1 (centres unmarked) [Example 45, [4-(5-tert-butyl-1,2,4-oxadiazol-3-yl)phenyl]-[4-(5-chlorooxazolo[4,5-b]pyridin-2-yl)-2-methyl-piperazin-1-yl]methanone] | 72 |
| CC1CN(C(=O)c2ccc(-c3noc(C(C)(C)C)n3)cc2)CCN1c1nc2nc(Cl)ccc2o1 (centres unmarked) [Example 46, [4-(5-tert-butyl-1,2,4-oxadiazol-3-yl)phenyl]-[4-(5-chlorooxazolo[4,5-b]pyridin-2-yl)-3-methyl-piperazin-1-yl]methanone] | 28 |
| CC1(Cn2cnc(-c3ccc(C(=O)N4CCN(c5nc6nc(Cl)ccc6o5)CC4)cc3)n2)CC1 [Example 49, [4-(5-chlorooxazolo[4,5-b]pyridin-2-yl)piperazin-1-yl]-[4-[1-[(1-methylcyclopropyl)methyl]-1,2,4-triazol-3-yl]phenyl]methanone] | 13 |
| CC1(Cn2ncnc2-c2ccc(C(=O)N3CCN(c4nc5nc(Cl)ccc5o4)CC3)cc2)CC1 [Example 50, [4-(5-chlorooxazolo[4,5-b]pyridin-2-yl)piperazin-1-yl]-[4-[2-[(1-methylcyclopropyl)methyl]-1,2,4-triazol-3-yl]phenyl]methanone] | 4230 |
| Cc1ccc2oc(N3CCN(C(=O)c4ccc(-c5noc(C6(C)CC6)n5)cc4)CC3)nc2n1 [Example 51, [4-[5-(1-methylcyclopropyl)-1,2,4-oxadiazol-3-yl]phenyl]-[4-(5-methyloxazolo[4,5-b]pyridin-2-yl)piperazin-1-yl]methanone] | 67 |
| CC(C)(C)c1cnn(-c2ccc(C(=O)N3CCN(c4nc5nc(Cl)ccc5o4)CC3)cc2)c1 [Example 52, [4-(4-tert-butylpyrazol-1-yl)phenyl]-[4-(5-chlorooxazolo[4,5-b]pyridin-2-yl)piperazin-1-yl]methanone] | 5 |

The next lines start with the values.

| IC50 [nM] | Compound |
| --- | --- |
| 498 | Cc1ccc2oc(N3CCN(C(=O)c4ccc(-c5nnc(C(C)(C)CF)o5)cc4)CC3)nc2n1 [Example 33, [4-[5-(2-fluoro-1,1-dimethyl-ethyl)-1,3,4-oxadiazol-2-yl]phenyl]-[4-(5-methyloxazolo[4,5-b]pyridin-2-yl)piperazin-1-yl]methanone] |
| 45 | Cc1ccc2oc(N3CCN(C(=O)c4ccc(-c5nc(C(C)(C)C)no5)cc4)CC3)nc2n1 [Example 38, [4-(3-tert-butyl-1,2,4-oxadiazol-5-yl)phenyl]-[4-(5-methyloxazolo[4,5-b]pyridin-2-yl)piperazin-1-yl]methanone] |
| 29 | CC(C)(C)n1cnc(-c2ccc(C(=O)N3CCN(c4nc5nc(Cl)ccc5o4)CC3)cc2)n1 [Example 41, [4-(1-tert-butyl-1,2,4-triazol-3-yl)phenyl]-[4-(5-chlorooxazolo[4,5-b]pyridin-2-yl)piperazin-1-yl]methanone] |
| 86 | Cc1ccc2oc(N3CCN(C(=O)c4ccc(-c5ncn(C(C)(C)C)n5)cc4)CC3)nc2n1 [Example 42, [4-(1-tert-butyl-1,2,4-triazol-3-yl)phenyl]-[4-(5-methyloxazolo[4,5-b]pyridin-2-yl)piperazin-1-yl]methanone] |
| 37 | Cc1ccc2oc(N3CCN(C(=O)c4ccc(-c5cnn(C(C)(C)C)c5)cc4)CC3)nc2n1 [Example 47, [4-(1-tert-butylpyrazol-4-yl)phenyl]-[4-(5-methyloxazolo[4,5-b]pyridin-2-yl)piperazin-1-yl]methanone] |
| 15 | CC(C)(C)n1cc(-c2ccc(C(=O)N3CCN(c4nc5nc(Cl)ccc5o4)CC3)cc2)cn1 [Example 48, [4-(1-tert-butylpyrazol-4-yl)phenyl]-[4-(5-chlorooxazolo[4,5-b]pyridin-2-yl)piperazin-1-yl]methanone] |
| 12 | Cc1ccc2oc(N3CCN(C(=O)c4ccc(-n5cc(C(C)(C)C)cn5)cc4)CC3)nc2n1 [Example 53, [4-(4-tert-butylpyrazol-1-yl)phenyl]-[4-(5-methyloxazolo[4,5-b]pyridin-2-yl)piperazin-1-yl]methanone] |
| 6 | Cc1ccc2oc(N3CCN(C(=O)c4ccc(-c5cnn(CC(C)(C)C)c5)cc4)CC3)nc2n1 [Example 54, [4-[1-(2,2-dimethylpropyl)pyrazol-4-yl]phenyl]-[4-(5-methyloxazolo[4,5-b]pyridin-2-yl)piperazin-1-yl]methanone] |
| 63 | Cc1ccc2oc(N3CCN(C(=O)c4ccc(-n5cnc(C(C)(C)C)c5)cc4)CC3)nc2n1 [Example 55, [4-(4-tert-butylimidazol-1-yl)phenyl]-[4-(5-methyloxazolo[4,5-b]pyridin-2-yl)piperazin-1-yl]methanone] |
